Experimental data published in patent EP4458804A1, “METHOD FOR PRODUCING AN OBJECT, PHENALEN-1-ONE COMPOUND AND USE THEREOF” (TriOptoTec GmbH, priority 2023, dated 2024).

Key:
[1] = Incorporation of photocatalysts into TPU films versus process time, absorption spectroscopy against blank film (Beispiele 7a-9b); assay type: physicochemical; settings: TPU Folie, Rezeptur 1; Beispiel 8a, Tabelle 44
Experimental: Im nächsten Schritt wurde die Verwendbarkeit der verschiedene Photokatalysatorklassen, ausgewählt aus Phenalen-1-on-Derivaten, Curcumin-Derivaten und Porphycen-Derivaten, mit unterschiedlichen Eigenschaften - von neutral unpolar bis ionisch polar - auf Ihre Verwendbarkeit und Wirkung im Verfahren untersucht.
Zur Beurteilung der optimalen Prozesszeit bei Einsatz der Photokatalysatoren, wurden TPU Folienstücke nach Beschreibung in Beispiel 4 zu je 1, 2, 5 und 10 min in den Imprägnierlösungen behandelt, gegebenenfalls auch 30 und 60 min bei undeutlichen Ergebnissen.
Als Basisformulierung wurde Rezeptur 1 nach Beispiel 2 verwendet.
Nach der angegebenen Prozesszeit wurden die Folie entnommen, mit Wasser gewaschen und für 1h bei 40°C getrocknet/abgelüftet.
Die Folien wurden durch Absorptionsspektroskopie gegen ein Blank-Folienstück direkt vermessen, beim Maximum der Absorption des Photokatalysators. Dabei ergaben sich in Abhängigkeit der Prozesszeit folgende Werte, die in den Tabellen 40 bis

[2] = test system: S.aureus ATCC 6538; experiment: Antibacterial activity of impregnated films, modified ISO 22196 with illumination (Beispiele 11-16, 25); assay type: cell-based; settings: Beispiel 14; TPU film; Rezeptur 1 (nach Beispiel 1); 1 mM photocatalyst in impregnation solution; light 20mW/cm2 10min
[3] = Two-component system (kit of parts): impregnation of TPU films, visual colouring and resistance to rubbing/washing (Beispiel 6a/6b); assay type: physicochemical; settings: TPU Folien; for Abreiben / Auswaschen der Färbung: feuchter Schwamm, Wasser
Source text: Um eine Mehrkomponenten-System bereitzustellen, bei dem vorzugsweise flüchtigere Hilfskomponenten, die gegebenenfalls regelmäßiger im Prozess ergänzt werden müssen, in einer separaten Komponente bereitgestellt werden können, wurde zunächst folgendes 2K-System getestet.
Grundkomponente (A): Eine Mischung aus 40,0% w/w Aceton, 30,0% w/w Isopropanol und […] w/w Wasser wurden homogen vermengt. Die Mischung war dicht verschlossen > 12 Monate bei Raumtemperatur lagerbar.
Zusatzkomponente (B): Eine Mischung aus 3,0% w/w Phenoxyethanol, 3,0% w/w EDTA und 0,1 bis 2,0 % Photokatalysator in Wasser wurden homogen verrührt. Die Mischung war dicht verschlossen in dunklen Flaschen > 6 Monate bei Raumtemperatur lagerbar.
Beide Lösungen wurden vor dem Prozess zu gleichen Teilen gemischt, gefolgt von einer 1:5 Verdünnung mit Wasser. Nach guter Durchmischung war die Lösung gebrauchsfertig.
Bei F-64a und F-73 war eine schwache Gelb- bzw.
Grundkomponente (A) enthielt eine Mischung aus 30,0% w/w Dimethylsuccinat, 33,0% w/w 1,2-Propandiol, 12,0% w/w Tween 20 und 25,0 % Wasser.
Zusatzkomponente (B) enthielt eine Mischung aus 2,0 Gew.-% Phenoxyethanol, 2,0 Gew.-% EDTA und 0,1 Gew.-% bis 1,6 Gew.-% Photokatalysator, jeweils bezogen auf das Gesamtgewicht der Zusatzkomponente (B), wobei die entsprechenden Bestandteile in Wasser gelöst wurden und anschließend homogen verrührt wurden.
Die Komponenten wurden vor Gebrauch im Verhältnis A zu B 2:1 gemischt, gefolgt von einer 1:1 Verdünnung mit Wasser. Nach guter Durchmischung war die Lösung gebrauchsfertig.

[4] = Comparative examples 23-25: impregnation of unsuitable plastics or with a fluorescent dye, visual evaluation; assay type: physicochemical; settings: 0,2 mm starke Polycarbonatfolien; 60 min Einwirkzeit
Experimental: Die Farbstoffkonzentration in der Imprägnierlösung betrug jeweils 1 mM bei Phenalen-1-on- und Curcuminderivaten, 0,1 mM bei Prophycenderivaten.
Es wurden 0,2 mm starke Polycarbonatfolien eingesetzt und mit Imprägnierlösungen enthaltend die Photokatalysatoren F-24b, F-64a oder F-73 behandelt.
Es wurden TPU Folien eingesetzt und mit einer Imprägnierlösung enthaltend den Farbstoff 2-Chloro-6-(3-hydroxypropylamino)-1-phenalenon (CAS 113722-81-9) behandelt.

[5] = Comparative example 26: highly polar photocatalysts in TPU films, 24 h immersion, film absorption before/after leaching; assay type: physicochemical; settings: 30 min impregnation, 20h airing, immersion in distilled water 24h (procedure A), film absorption maximum before/after
Experimental: Es wurden TPU Folien eingesetzt und mit Imprägnierlösungen enthaltend die folgenden Farbstoffe behandelt. Nach 30 min Einwirkzeit wurden homogen gefärbte Folien erhalten.
Die Ablüftzeit nach Behandlung betrug 20h.
Anschließend wurde ein Belastungstest Immersion mit destilliertem Wasser über 24h durchgeführt (siehe oben beschriebenes Verfahren A) ). Die Folien wurden durch Absorptionsspektroskopie direkt vermessen und die Maximum der Absorption vor/nach Auswaschen verglichen. Es ergaben sich folgende relative Werte, die auf einen starken Austrag der Photokatalysatoren schließen lassen. Die Ergebnisse sind in der Tabelle 63 dargestellt. Tabelle 63: Einbindung von Photokatalysatoren in Kunsttofffolien

Q: For `NCCOc1ccc(/C=C/C(=O)CC(=O)/C=C/c2ccc(OCCN)cc2)cc1` [F-64a], which “Abs. 10 min” value [1] is on record?
A: 0,55

Q: What about the “Log10 Reduktion Hauptprobe” value [2] of the same molecule?
A: 2,6 ± 1,7 log10

Q: And the “Imprägnierung / Färbung der Folie” value ([3]; 2K-System Beispiel 6a (Aceton/Isopropanol))?
A: schwache Gelb- bzw. Blaufärbung der Folie

Q: And the “Abreiben / Auswaschen der Färbung” value ([3]; 2K-System Beispiel 6a)?
A: weder mit einem feuchten Schwamm abreiben noch mit Wasser auswaschen ließ

Q: And the “Imprägnierung / Färbung der Folie” value ([3]; 2K-System Beispiel 6b (Dimethylsuccinat/1,2-Propandiol/Tween 20))?
A: schwache Gelb- bzw. Blaufärbung der Folie

Q: What about the “Abreiben / Auswaschen der Färbung” value ([3]; 2K-System Beispiel 6b) of the same molecule?
A: weder mit einem feuchten Schwamm abreiben noch mit Wasser auswaschen ließ

Q: And the Verfärbung [4]?
A: keine Verfärbung

Q: For `Cl.Cl.Cl.Cl.Cl.Cl.NCCOc1cc(/C=C/C(=O)CC(=O)/C=C/c2cc(OCCN)c(OCCN)c(OCCN)c2)cc(OCCN)c1OCCN` [SACUR-05], which “Verlust durch Auswaschen” value [5] is on record?
A: > 70%

Q: With “2,7,12-Tris(pyridinio-p-tolyl)-17-(p-(methoxymethyl)phenyl) porphycen bromid” as the molecule, how does the “Verlust durch Auswaschen” value [5] read?
A: > 66%

Q: Which “Verlust durch Auswaschen” value [5] does the source give for `O=C1C=Cc2cccc3cccc1c23` [Phenalen-1-on (Verb.Bsp. 48)] here?
A: > 50%
